# Source: patent publication US10160972B2, “Methods and materials for treating cancer” (Mayo Foundation for Medical Education and Research, priority 2012, dated 2018)
# Key:
# [1] = test system: Caki1, A498, Caki2, and ACHN ccRCC cell lines; assay: OA-BSA rescue of growth inhibition; format: cell-based, human; settings: IC50 doses of A939572 + OA-BSA vs DMSO+BSA control, all four cell lines
# Procedure: Drug stocks were prepared in DMSO. Monotherapeutic treatment identified drug dose-response. […] Temsirolimus dosing was performed as described in the text.
# [2] = test system: Caki1, A498, Caki2, and ACHN ccRCC cells; assay: Gene array expression analysis; format: cell-based, human; settings: 75 nM, 24 hours, vs DMSO control
# Procedure: Gene array expression analysis was performed using Affymetrix Human Genome U133 Plus 2.0 Array chip. The details of the data processing and methodology were previously described in (Tun H W, Marlow L A, von Roemeling C A, Cooper S J, Kreinest P, Wu K, et al. Pathway signature and cellular differentiation in clear cell renal cell carcinoma. PLoS One. 2010; 5:e10696). Gene expression data was deposited at Gene Expression Omnibus (Accession#GSE41485). Pathway analysis was performed using IPA (Ingenuity® Systems).
# Caki1 and A498 cells = assay: Western blot of ER stress markers; format: cell-based, human; settings: 75 nM drug or shSCD780 knockdown, 48 hours
# Procedure: (§1) Protein extracts, electrophoresis, and membrane transfers were prepared as previously described (Copland J A, Marlow L A, Kurakata S, Fujiwara K, Wong A K, Kreinest P A, et al. Novel highaffinity PPARgamma agonist alone and in combination with paclitaxel inhibits human anaplastic thyroid carcinoma tumor growth via p21WAF1/CIP1. Oncogene. 2006; 25:2304-17). Primary antibodies included SCD1, PARP, DDIT3, BiP, sXBP1, and β-actin. A Supersignal chemiluminescent kit was used to perform detection.
# A498 ccRCC xenografts = assay: Western blot of CHOP in xenograft tumor tissue; format: in vivo, athymic nude (nu/nu) mice; settings: normalized to β-actin, tumor tissue samples
# Procedure: as §1
# MiaPaca cells = assay: Cell number growth inhibition assay; format: cell-based, human; settings: cell number as percent of DMSO control
# Procedure: (§2) A number of cancer cell lines were tested to determine whether SCD1 protein expression correlates with growth inhibition of an SCD1 inhibitor in human cancer cell lines.
# (§3) Cells (20,000/ml) were plated in 12 well cell culture plates, allowed to attach and treated with the indicated dose of SCD1 inhibitor ([…]) or standard of care (gemcitabine). Cell number was counted using a Coulter Counter. As show in FIG. 7, the data are expressed as percent of DMSO control. Each value represents triplicates. Western analysis for SCD1 protein expression was performed on each cell line with beta-actin as the loading control.
# Panc cells = assay: Cell number growth inhibition assay; format: cell-based, human
# Procedure: as §2, §3
# Caco2 colon cancer cells = assay: Cell number growth inhibition assay; format: cell-based, human
# Procedure: as §2, §3
# (§4) The following cell lines were studied using a similar method as that described above.
# Calu-1 lung cancer cells = assay: Cell number growth inhibition assay; format: cell-based, human
# Procedure: as §2, §3, §4
# [3] = test system: DU-145 prostate cancer cells; assay: Cell number growth inhibition assay; format: cell-based, human
# Procedure: as §2, §3, §4
# [4] = test system: MCF-7 (ER+/PR+) breast cancer cells; assay: Cell number growth inhibition assay; format: cell-based, human
# Procedure: as §2, §3, §4
# [5] = test system: MDA-231 (triple negative) breast cancer cells; assay: Cell number growth inhibition assay; format: cell-based, human
# Procedure: as §2, §3, §4
# [6] = test system: SNU449 liver cancer cells; assay: Cell number growth inhibition assay; format: cell-based, human; settings: SNU449
# Procedure: as §2, §3, §4
# T24 bladder cancer cells = assay: Cell number growth inhibition assay; format: cell-based, human
# Procedure: as §2, §3, §4
# [7] = test system: T47D (PR+) breast cancer cells; assay: Cell number growth inhibition assay; format: cell-based, human
# Procedure: as §2, §3, §4
# [8] = test system: ATF6 luciferase reporter in A498 cells
# Procedure: For transient transfection, Caki1 and A498 cells were transfected using Lipofectamine 2000. Cells treated with DMSO vs. A939572 or infected using shSCD780 lentiviral constructs vs. NT control were harvested after 48 hrs using Promega's Dual Luciferase assay kit per the manufacturer's protocol and luciferase activity was measured using a Veritas Luminometer; reported as relative luminescence.
# Caki1 and A498 cells transfected with an ATF6 luciferase reporter (p5xATF6-GL3) were treated with a 75 nM dose of A939572 or were infected with shSCD780. Resulting luminescence was measured after 48 hours.
smiles,measurement,setting,value
CNC(=O)c1cccc(NC(=O)N2CCC(Oc3ccccc3Cl)CC2)c1 [A939572],growth inhibition with addition of OA-BSA,[1],prevented A939572 mediated growth inhibition
same,expression of ER stress response genes associated with UPR,[2],increased expression of ER stress response genes
same,"protein expression of ER stress markers BiP, CHOP, spliced-XBP1",Caki1 and A498 cells,amplified expression
same,CHOP expression (ER stress),A498 ccRCC xenografts,Increased expression of CHOP
same,growth inhibition,MiaPaca cells,growth inhibited in a dose dependent fashion
same,growth inhibition,Panc cells,growth inhibited at only high levels
same,growth inhibition,Caco2 colon cancer cells,growth inhibited in a dose dependent fashion
same,growth inhibition,Calu-1 lung cancer cells,not growth inhibited
same,growth inhibition,[3],growth inhibited in a dose dependent fashion
same,growth inhibition,[4],growth inhibited in a dose dependent fashion
same,growth inhibition,[5],growth inhibited in a dose dependent fashion
same,growth inhibition,[6],growth inhibited in a dose dependent fashion
same,IC50,"[6]; read-out: estimated IC50 concentration, growth inhibition",~100 nM
same,growth inhibition,T24 bladder cancer cells,growth inhibited in a dose dependent fashion
same,growth inhibition,[7],growth inhibited in a dose dependent fashion
same,reporter activation with addition of OA-BSA,"[8]; A498, + OA-BSA",significantly reduced reporter activation
same,"luciferase activity, fold change induction","[8]; A498, +BSA, 75 nM A939572 or shSCD780, 48 hours, vs DMSO and NT controls",3.8 fold change
